Data from ChEMBL document CHEMBL1201862, “PubChem BioAssay data set” (2004).
Active and inactive are the calls of the source. Rule as the data show it, for most assays here: actives have a measured EC50 and inactives only a lower limit.

Experiments:
Format in all cases: functional
Protein RecA = target: T1, Protein RecA (Mycobacterium tuberculosis, UniProt P9WHJ3); experiment: Fluorescence Cell-Free Homogeneous Dose Retest to Identify Inhibitors of RecA-Intein Splicing Activity. [Related pubchem assays (depositor defined):AID2097, AID2223, AID489010, AID492950]
T1 sequence (P9WHJ3 whole entry): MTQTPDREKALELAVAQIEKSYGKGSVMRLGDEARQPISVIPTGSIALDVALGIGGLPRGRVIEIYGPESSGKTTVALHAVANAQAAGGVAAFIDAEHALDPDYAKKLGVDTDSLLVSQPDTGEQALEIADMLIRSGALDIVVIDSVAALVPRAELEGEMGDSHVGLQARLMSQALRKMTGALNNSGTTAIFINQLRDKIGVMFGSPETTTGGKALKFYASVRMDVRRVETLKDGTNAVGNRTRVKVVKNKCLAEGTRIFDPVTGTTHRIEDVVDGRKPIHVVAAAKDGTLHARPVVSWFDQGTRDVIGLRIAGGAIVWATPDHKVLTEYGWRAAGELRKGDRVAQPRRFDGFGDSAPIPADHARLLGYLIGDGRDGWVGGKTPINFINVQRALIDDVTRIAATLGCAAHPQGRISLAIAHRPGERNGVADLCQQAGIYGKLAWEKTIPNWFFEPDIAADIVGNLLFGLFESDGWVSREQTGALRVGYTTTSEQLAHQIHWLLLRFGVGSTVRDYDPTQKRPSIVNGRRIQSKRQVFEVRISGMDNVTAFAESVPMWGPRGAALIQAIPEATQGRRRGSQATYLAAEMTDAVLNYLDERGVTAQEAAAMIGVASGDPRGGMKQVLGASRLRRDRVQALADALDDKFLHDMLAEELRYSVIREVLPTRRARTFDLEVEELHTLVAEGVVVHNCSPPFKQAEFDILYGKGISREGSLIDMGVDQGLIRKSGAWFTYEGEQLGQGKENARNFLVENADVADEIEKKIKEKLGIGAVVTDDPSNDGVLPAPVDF

[1] = target: T2, Replicative DNA helicase DnaB (Mycobacterium tuberculosis, UniProt P9WMR3); experiment: DnaB intein splicing inhibitors, dose response, biochemical, cell-free fluorescence (AID 449749)
T2 sequence (P9WMR3 whole entry): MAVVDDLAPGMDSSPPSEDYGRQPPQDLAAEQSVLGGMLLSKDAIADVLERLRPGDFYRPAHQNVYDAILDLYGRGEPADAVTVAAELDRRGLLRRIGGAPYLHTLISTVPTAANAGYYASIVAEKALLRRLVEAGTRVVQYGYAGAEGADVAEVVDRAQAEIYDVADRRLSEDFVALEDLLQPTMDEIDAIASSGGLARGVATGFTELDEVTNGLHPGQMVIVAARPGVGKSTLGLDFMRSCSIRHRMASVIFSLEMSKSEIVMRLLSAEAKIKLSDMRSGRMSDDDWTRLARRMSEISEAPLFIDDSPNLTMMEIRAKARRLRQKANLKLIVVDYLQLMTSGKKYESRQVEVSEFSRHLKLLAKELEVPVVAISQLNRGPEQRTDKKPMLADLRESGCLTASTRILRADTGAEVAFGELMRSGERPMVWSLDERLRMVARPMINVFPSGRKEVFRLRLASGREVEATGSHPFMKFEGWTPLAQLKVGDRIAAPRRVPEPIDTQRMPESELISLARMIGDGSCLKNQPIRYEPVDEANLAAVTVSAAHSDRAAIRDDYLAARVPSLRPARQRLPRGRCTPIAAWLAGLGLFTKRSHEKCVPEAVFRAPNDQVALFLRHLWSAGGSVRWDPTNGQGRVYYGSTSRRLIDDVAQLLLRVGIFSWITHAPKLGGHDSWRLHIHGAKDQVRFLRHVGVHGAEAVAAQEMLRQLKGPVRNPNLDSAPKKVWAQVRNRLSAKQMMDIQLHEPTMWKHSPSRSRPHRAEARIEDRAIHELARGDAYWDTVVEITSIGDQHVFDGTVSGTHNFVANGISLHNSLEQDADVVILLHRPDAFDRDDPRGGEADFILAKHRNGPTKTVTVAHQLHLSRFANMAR

H4 = experiment: Luminescence Cell-Based Dose Response HTS to Identify Activators of 5'UTR Stem-Loop Driven Prion Protein mRNA Translation in H4 Neuroglioblastoma Cells. [Related pubchem assays: 1829 (Project Summary), 1814 (Primary HTS)]; details: Homo sapiens
[2] = Luminescence Cell-Based Dose Confirmation HTS to Identify Activators of 5'UTR Stem-Loop Driven Alpha-Synuclein mRNA Translation in H4 Neuroglioblastoma Cells. [Related pubchem assays: 1829 (Project Summary), 1814 (Primary HTS)]
[3] = Luminescence Cell-Based Dose Response HTS to Identify Activators of Luciferase Translation or Activity in H4 […] Cells. [Related pubchem assays: 1829 (Project Summary), 1814 (Primary HTS)]
[4] = target: T3, Heat shock factor protein 1 (Mus musculus, UniProt P38532); experiment: enhancement of HSF1-driven luciferase signal – cell-based, NIH3T3, luminescence, dose retest, confirmation (AID 435004);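 also: stress induced by proteasome inhibitor MG132 added 30 min after compound; luciferase reporter driven by HSF1 response element in NIH3T3 cells; actives raise luminescence as potentiators of the MG132 stress response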
T3 sequence (P38532 whole entry): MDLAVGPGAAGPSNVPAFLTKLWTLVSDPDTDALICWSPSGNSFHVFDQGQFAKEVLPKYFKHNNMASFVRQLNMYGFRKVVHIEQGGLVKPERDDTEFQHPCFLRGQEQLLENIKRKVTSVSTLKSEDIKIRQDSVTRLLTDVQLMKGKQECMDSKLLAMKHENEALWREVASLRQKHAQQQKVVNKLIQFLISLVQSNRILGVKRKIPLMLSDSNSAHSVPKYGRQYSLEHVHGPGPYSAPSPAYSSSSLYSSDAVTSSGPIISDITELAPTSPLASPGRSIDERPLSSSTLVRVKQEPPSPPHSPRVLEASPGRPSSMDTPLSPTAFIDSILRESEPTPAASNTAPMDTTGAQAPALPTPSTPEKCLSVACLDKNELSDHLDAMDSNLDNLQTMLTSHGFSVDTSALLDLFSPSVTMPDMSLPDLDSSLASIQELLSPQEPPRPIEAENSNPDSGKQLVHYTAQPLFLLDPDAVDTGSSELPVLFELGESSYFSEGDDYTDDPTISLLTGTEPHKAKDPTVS

[5] = target: T4, High affinity choline transporter 1 (Homo sapiens, UniProt Q9GZV3); experiment: human choline transporter blockers, potency – cell-based, 5-point CRC, membrane potential dye, dose response (AID 504840)
T4 sequence (Q9GZV3 whole entry): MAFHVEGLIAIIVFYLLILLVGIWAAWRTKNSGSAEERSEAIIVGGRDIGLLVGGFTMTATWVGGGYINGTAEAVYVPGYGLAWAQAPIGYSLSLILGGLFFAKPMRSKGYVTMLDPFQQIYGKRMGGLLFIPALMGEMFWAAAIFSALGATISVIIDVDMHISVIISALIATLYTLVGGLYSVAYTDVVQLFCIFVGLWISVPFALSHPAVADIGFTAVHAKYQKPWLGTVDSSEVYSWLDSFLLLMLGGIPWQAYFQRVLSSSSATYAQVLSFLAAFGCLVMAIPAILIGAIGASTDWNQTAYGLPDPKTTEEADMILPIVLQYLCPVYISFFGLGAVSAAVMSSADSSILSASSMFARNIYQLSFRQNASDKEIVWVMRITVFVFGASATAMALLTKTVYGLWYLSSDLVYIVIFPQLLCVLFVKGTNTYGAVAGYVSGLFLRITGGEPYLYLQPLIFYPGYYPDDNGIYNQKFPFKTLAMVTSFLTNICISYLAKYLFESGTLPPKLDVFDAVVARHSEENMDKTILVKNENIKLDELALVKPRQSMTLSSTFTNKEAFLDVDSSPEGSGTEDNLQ

O=S(=O)(Nc1ccc(-n2cnnn2)cc1)c1ccc(F)c(F)c1F
EC50 (Protein RecA): > 380 µM (inactive) | AC50 [1]: > 380 µM (inactive)

CN1C(=O)S/C(=C\c2ccc(-n3cncn3)cc2)C1=O
EC50 (H4): > 120 µM (not active) | EC50 [2]: 59.6 µM (active) | EC50 [3]: 32.4 µM (active)

CC(CC#CCN1CCOCC1)OCCC#N (configuration not stated)
EC50 [4]: > 260 µM (inactive)

Cc1cccc(N2CCN(C(=O)c3ccc(CNc4c(N5CCC(C)CC5)c(=O)c4=O)cc3)CC2C)c1 (configuration not stated)
IC50 [5]: 14.5 µM (active)

COc1cc(C2C(C#N)=C(N)Oc3[nH]nc(C)c32)ccc1OC(=O)c1ccccc1 (configuration not stated)
EC50 (Protein RecA): 17.3 µM (active) | AC50 [1]: 20.3 µM (active)

Cc1cc(-c2nnc(-c3cccc(Cl)c3)o2)no1
EC50 (H4): 119 µM (active) | EC50 [2]: 0.132 µM (active) | EC50 [3]: 0.318 µM (active)

Cc1cccc(C(=O)NC2C(=O)NNC2c2ccc(Cl)cc2)c1 (configuration not stated)
EC50 (Protein RecA): 18.9 µM (active) | AC50 [1]: 18.7 µM (active)

CCN1CCCC1CNC(=O)c1ccc2c(c1)N(Cc1ccccc1F)C(=O)c1ccccc1S2(=O)=O (configuration not stated)
IC50 [5]: 11.2 µM (active)

Cc1ccccc1Nc1c(-c2ccc(N3CCOCC3)cc2)nc2cnccn12
EC50 (H4): 16.6 µM (active) | EC50 [2]: 15 µM (active) | EC50 [3]: 19.2 µM (active)

O=C(Cc1c(O)c2ccccc2[nH]c1=O)NCc1ccccc1
EC50 [4]: > 260 µM (inactive)

COc1ccc(NC(=O)COc2cccc3c2CCN(Cc2cccnc2)C3=O)c(OC)c1
EC50 [4]: > 260 µM (inactive)

CCCOc1ccc(-c2c(=O)n(O)c3ccccc3[n+]2[O-])cc1
EC50 (H4): 97.6 µM (active) | EC50 [2]: 10.1 µM (active) | EC50 [3]: 11.6 µM (active)

CC(C)(C)OC(=O)N1CC=C2C(C#N)=C(N)C(C#N)(C#N)C(c3cccs3)C2C1 (configuration not stated)
EC50 (Protein RecA): 5.1 µM (active) | AC50 [1]: > 380 µM (inactive)

O=C1C=C(c2ccccc2)CC(/C=C/c2ccccc2)C1 (configuration not stated)
EC50 [4]: > 260 µM (inactive)

CC(C)Cn1c(=O)c2c(nc3n2CCCN3CCc2ccccc2)n(C)c1=O
IC50 [5]: 13.2 µM (active)
